Source: patent US20030162723A1, “Supplementation of equine feedstuffs” (priority 2000, published 2003)
Entries after “also recorded” stand apart in the source; their conditions may differ.

Columns and labels:
[1] = set-up: species or system horse; settings: in vivo
Description: Six stabled Thoroughbred horses (2 mares, 4 geldings; aged 5-9 years), were maintained on hay and mixed feed for a minimum of two weeks before the start of the study. Horses were fed at 8 am and 4 pm. The mixed feed was a mix of cereal sources, fibre sources and protein sources with added vitamins and minerals. The ingredients included, in descending order of inclusion, enriched fibre pellets, rolled oats, soya hull pellets, flaked maise, flaked barley, flaked peas, molgio, full fat soya, vegetable oils, lucerne (alfalfa), calcium carbonate, dicalcium phosphate, salt, lysine, magnesium phosphate and zinc sulphate. Analysis: oil 8%, protein 12%, fibre 11%, ash 7.5%.
Within each part of the study, the order of the feeds was randomised between horses using a Latin Square design. The study comprised four parts:
Part 1: Acute plasma glutamine response to a single feed of molassed sugar beet (mSB), naked oats (nO) and mixed feed (M). […] Total plasma proteins were measured as an indication of plasma volume changes related to the hay or test feeds. […]
Plasma was deproteinised with an equal volume of perchloric acid and neutralised with KHCO3. […] The method was a consolidation of those by Lund (1974), and, Beutler and Michal (1974), creating a one-step enzymic method applied to a microplate reader using only 20 μl of sample. […]

[2] = Plasma ammonia after feeding molassed sugar beet supplemented with L-glutamine (dry-strip analyser); assay type: in vivo, horse; settings: glutamine supplementation, 60 mg/kg bwt with mSB
Protocol: The mSB, hay and water were provided as in Part 1.
Blood samples were drawn through an indwelling jugular catheter into tubes containing lithium heparin (on ice). In Part 1 samples were taken pre and at 0.5, 1, 1.5, 2, 3, 4, 6 and 8 hours post feed. In Parts 2, 3 and 4 samples were taken pre and at 0.25, 0.5, 0.75, 1, 1.5, 2, 3, 4, 6 and 8 hours. Samples were centrifuged, the plasma harvested, divided into aliquots and stored at −80° C.
Total plasma protein content was estimated using a refractometer (Goldberg Refractometer).

## NC(=O)CC[C@H](N)C(=O)O [L-glutamine]
[1]
  response (peak concentration and AUC) compared with the peptide: greater response
[2]
  effect on plasma ammonia concentration: unaffected; also recorded: Neither did oral ingestion of glutamine have any effect
[2]; listed as G
  effect on plasma ammonia concentration: no significant increase
